Structures can show the parent of a compound that is named as a salt. Where two headings read alike, the source gives them in different places.
Key:
TbINO1 = biological target: T1, TbINO1 (Trypanosoma brucei brucei, UniProt Q5QQ46); experiment: biochemical; format: binding
T1 sequence (Q5QQ46 1-528): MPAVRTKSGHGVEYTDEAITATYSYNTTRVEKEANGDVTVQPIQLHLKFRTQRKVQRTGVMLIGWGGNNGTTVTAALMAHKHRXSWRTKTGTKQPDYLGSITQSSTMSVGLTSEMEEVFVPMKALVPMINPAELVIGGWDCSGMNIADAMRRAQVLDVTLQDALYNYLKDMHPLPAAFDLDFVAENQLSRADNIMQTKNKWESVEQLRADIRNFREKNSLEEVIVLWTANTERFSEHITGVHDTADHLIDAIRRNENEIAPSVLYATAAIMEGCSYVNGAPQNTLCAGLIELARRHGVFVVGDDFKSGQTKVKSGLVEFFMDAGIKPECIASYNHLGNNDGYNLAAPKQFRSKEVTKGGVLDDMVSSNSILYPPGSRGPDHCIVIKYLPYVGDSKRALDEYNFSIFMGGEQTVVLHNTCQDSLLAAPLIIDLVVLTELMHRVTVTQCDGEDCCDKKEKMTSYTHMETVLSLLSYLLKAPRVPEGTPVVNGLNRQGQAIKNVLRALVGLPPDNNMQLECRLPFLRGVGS

HeLa cells = experiment: cells; conditions: for viability at 500 µM: 65 h; for HeLa Cells Alamar Blue: Supplementary Table 1
In short: (§1)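 HeLa and A549 cells grown in DMEM with 10% FCS and 2 mM L-Glutamine were seeded at 2 × 10^4 cells/well. They were exposed to compounds for ~65 hours, then Alamar Blue was added for a further 5 hours to measure viability.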

A549 cells = experiment: Cytotoxicity against A549 cells, Alamar Blue; format: cell-based; conditions: Supplementary Table 1, compound 0.5 mM, percentage of controls (n=1); for viability at 500 µM: Homo sapiens, A549, 65 h
In short: as §1

[1] = read-out: Tb Ino1 Tm Shift [˚C]
[2] = Homo sapiens, HeLa, read-out: HeLa Cells Alamar Blue
[3] = Supplementary Table 1, compound 1mM, mean ± SD from Boltzman curve fitting
[4] = compound 0.5 mM, percentage of controls, mean ± SD (n=3) or SE (n=2)
[5] = Homo sapiens, HeLa, read-out: HeLa Cells Alamar Blue (% survival)

ΔTm at 1000 µM (TbINO1; [1]) [°C] | Structure (SMILES) | viability at 500 µM (HeLa cells; [2]) [%] | viability at 500 µM (A549 cells) [%] | other results
0.57 ± 0.04 | O=C(O)c1ccc2ncccc2c1 [compound 370, quinoline‐6‐carboxylic acid] | 109 ± 13.1 | 152 | 
0.22 ± 0.06 | COC(=O)c1c[nH]c2ccccc12 [compound 392, methyl 1H‐indole‐3‐carboxylate] | 110 ± 3.7 | 88.1 | 

Continued, compound first:

Structure (SMILES) | ΔTm at 1000 µM (TbINO1; [1]) [°C] | viability at 500 µM (HeLa cells; [2]) [%] | viability at 500 µM (A549 cells) [%] | other results
O=C(O)Cc1cccnc1 [compound 381, pyridin‐3‐ylacetic acid hydrochloride] | 1.08 ± 0.05 | 99.2 ± 9.9 | 105 | 
CCc1ccc(CNC)cc1 [compound 180, N‐(4‐ethylbenzyl)‐N‐methylamine] | 0.14 ± 0.08 | 99.8 ± 1.1 | 87 | 
CC(=O)c1ccc(C#N)s1 [compound 198, 5‐acetylthiophene‐2‐carbonitrile] | 0.24 ± 0.07 | 93.3 ± 15.3 | 61.2 | 
OCc1cccnc1N1CCCC1 [compound 440, [2‐(1‐pyrrolidinyl)‐3‐pyridinyl]methanol] | 0.78 ± 0.08 | 74.6 ± 7.5 | 94 | 
O=C(O)CCc1cccs1 [compound 237, 3‐(2‐thienyl)propanoic acid] | 0.22 ± 0.07 | 113 ± 7.8 | 70.9 | 
NC(=S)c1cccc2c1OCCO2 [compound 592, 2,3‐dihydro‐1,4‐benzodioxine‐5‐carbothioamide] |  |  |  | Tb Ino1 Tm Shift [˚C] (TbINO1; [3]): 0.18 ± 0.07 °C; HeLa Cells Alamar Blue (HeLa cells; [4]): 54.3 ± 15.7 percentage of controls; A549 Cells Alamar Blue (A549 cells): 39.8 percentage of controls
Cn1c(=O)cc(O)c2ccccc21 [compound 395, 4-hydroxy-1-methyl-1,2-dihydroquinolin-2-one] |  | 93 ± 0.3 | 174 | ΔTm at 1000 µM (TbINO1; read-out: TbIno1 Tm shift [°C]): 1.62 ± 0.03 °C; viability at 500 µM (HeLa cells; [5]): 93 ± 0.3%
Nc1cc(F)cc(F)c1 [compound 89, 3,5‐difluoroaniline] | 0.3 ± 0.07 | 104 ± 10.5 | 132 | 
OCC1CNc2ccccc2O1 (stereo not shown) [compound 307, 3,4‐dihydro‐2H‐1,4‐benzoxazin‐2‐ylmethanol] |  |  |  | Tb Ino1 Tm Shift [˚C] (TbINO1; [3]): 0.56 ± 0.06 °C; HeLa Cells Alamar Blue (HeLa cells; [4]): 81 ± 17.2 percentage of controls; A549 Cells Alamar Blue (A549 cells): 70.8 percentage of controls
CC(=O)c1ccc(C#N)cc1 [compound 155, 4‐acetylbenzonitrile] |  | 87.3 ± 16.6 | 131 | ΔTm at 1000 µM (TbINO1; Supplementary Table 1, compound 1mM, mean ± SD from Boltzman curve fitting, read-out: Tb Ino1 Tm Shift [˚C]): 0.19 ± 0.06 °C
OCc1cccc2c1OCC2 [compound 186, 2,3-Dihydrobenzo[b]furan-7-methanol] |  | 86.5 ± 14.8 | 41.8 | ΔTm at 1000 µM (TbINO1; read-out: TbIno1 Tm shift [°C]): 4.09 ± 0.09 °C; viability at 500 µM (HeLa cells; [5]): 86.5 ± 14.8%
O=C(O)c1sccc1-n1cccc1 [compound 577, 3-(1H-pyrrol-1-yl)thiophene-2-carboxylic acid] |  | 103 ± 2.8 | 90.4 | ΔTm at 1000 µM (TbINO1; read-out: TbIno1 Tm shift [°C]): 2.78 ± 0.08 °C; viability at 500 µM (HeLa cells; [5]): 103 ± 2.8%; CC50 (HeLa cells; Homo sapiens, HeLa, read-out: HeLa ED50): > 20 mM
CC1CNC(C)CN1 (stereo not shown) [compound 36, 2,5‐dimethylpiperazine] | 0.18 ± 0.08 | 91.3 ± 12.1 | 76.6 | 
C#Cc1ccc(OC)cc1 [compound 96, 1‐eth‐1‐ynyl‐4‐methoxybenzene] | 0.48 ± 0.06 | 94 ± 4.9 | 111 | 
c1cnc2c(n1)CCCC2 [compound 111, 5,6,7,8‐tetrahydroquinoxaline] | 0.16 ± 0.06 | 95.6 ± 0.8 | 96.1 | 
O=C(O)[C@H]1CCCN1 [compound 37, D‐proline] | 0.41 ± 0.06 | 94.8 ± 10.1 | 78.6 | 
O=C(O)c1ccccc1F [compound 129, 2‐fluorobenzoic acid] | 0.13 ± 0.07 |  | 126 | viability at 500 µM (HeLa cells; Homo sapiens, HeLa, read-out: HeLa Cells Alamar Blue, Supplementary Table 1, compound 0.5 mM, percentage of controls, mean ± SD (n=3) or SE (n=2)): 78.6 ± 14.2%
